# Tested on: PC9 cells
# Experiment: Pooled metabolically focused CRISPR/Cas9 loss-of-function screen with GNF5 (gene-level three scores)
# Assay type: cell-based, human
# Description: POOLED CRISPR SCREEN. PC9 cells were seeded into 12, six-well plates at 0.25e6 cells/well. A separate plate was also prepared for no puromycin and puromycin controls of non-transduced cells. Cells were transduced at a MOI of 0.2. 24 hours after viral transduction, cells were replated into puromycin-containing media. A sample was collected at 48 hours of puromycin exposure to confirm library coverage in the transduced population. Transduced cells were expanded in puromycin for a total of 10 days prior to drug introduction, at which point the transduced cell population was split into vehicle (DMSO) and GNF5 treatment conditions and maintained for up to two weeks. Cells were treated with 2 μM GNF5 which corresponded to 20-30% loss in cell viability following a 3-day dose response assay. Cells were counted, replated, and drug replenished every day. At any given point during the screen, each replicate was represented by a minimum of 12E6 cells, sufficient to provide 1000×coverage of the library (1000 cells per unique sgRNA). Samples of 25E6 cells were collected upon screen initiation, termination, and at weekly intervals. Following completion of the screens, DNA was extracted (DNeasy Blood & Tissue Kit, QIAGEN) and prepared for sequencing as previously described.
# SCREEN ANALYSIS. Deep sequencing was performed on an Illumina Nextseq platform (75 bp, paired-ended) to identify differences in library composition. All sequencing was performed by the Duke University genome sequencing facility. Barcoded reads were mapped to the guide RNA library using bcSeq to obtain the counts for each guide RNA. Determinations of genetic essentiality and drug sensitization/resistance were made by evaluating differential guide compositions between the initial population and subsequent drug-treated and vehicle-treated cells populations. Briefly, the fractional representation (FR) for the guide reads within a sample was normalized to the total reads attributed to that sample. A direct comparison between two samples was represented by the quotient of the respective FRs in the log 2 scale, which is termed the depletion metric (DM). The guide-level DMs for each gene were then collapsed to gene-level scores by taking the average of the top three most depleted constructs resulting in a biased analysis focused on depleted genes. Genes represented by fewer than 5 guides per condition were excluded from analysis. In the 2,322-gene library, 7 genes (representing 0.3% of the total library) were excluded. Genetic essentiality was calculated by considering the depletion/enrichment of the vehicle-treated (DSMO) population over time (DMSO final/DSMO initial). Drug sensitization/resistance was calculated by considering the depletion/enrichment of the drug-treated population relative to the vehicle-treated population (Drug final/DMSO final). All depletion/enrichment effects are reported as log 2 ratios. All analyses were conducted using the R statistical environment (https://www.r-project.org/) along with extension packages from the comprehensive R archive network (CRAN; available at cran.r-project.org/) and the Bioconductor project. The analyses were carried out with adherence to the principles of reproducible analysis using the knitr package for generation of dynamic reports and gitlab for source code management. The code for replicating the statistical analysis was made accessible through a public source code repository, available at gitlab.oit.duke.edu/dcibioinformatics/pubs/pendergast-crispr-barcode.
# Because many metabolic genes are known to be essential to cellular viability, determining the effect of cell-essential genetic loss on apoptosis is difficult. […] The remaining cell-essential genes are captured by the screen.
# Metabolically focused CRISPR/Cas9 loss-of-function screen identifies HMGCR inhibition with statin therapy as an apoptotic sensitizer in lung cancer cells. […]
smiles,measurement,setting,value
O=C(NCCO)c1cccc(-c2cc(Nc3ccc(OC(F)(F)F)cc3)ncn2)c1 [GNF5],log2 TS,CCBL1 knockout,−0.2362
same,log2 TS,CCBL2 knockout,−0.00176
same,log2 TS,CCDC102B knockout,−0.3186
same,log2 TS,CCDC155 knockout,−0.128
same,log2 TS,CDA knockout,−0.3678
same,log2 TS,CDADC1 knockout,−0.189
same,log2 TS,CDC14A knockout,−0.5269
same,log2 TS,CDC14B knockout,−0.3312
same,log2 TS,CDC25A knockout,−0.3125
same,log2 TS,CDC25B knockout,−0.5769
same,log2 TS,CDC25C knockout,0.02041
same,log2 TS,CDKN3 knockout,−0.2304
same,log2 TS,CDO1 knockout,−0.3626
same,log2 TS,CECR1 knockout,0.1378
same,log2 TS,CEL knockout,−0.2626
same,log2 TS,CERK knockout,−0.2067
same,log2 TS,CERKL knockout,−0.4755
same,log2 TS,CERS1 knockout,−0.5675
same,log2 TS,CERS2 knockout,−0.1757
same,log2 TS,CERS3 knockout,−0.3966
same,log2 TS,CERS4 knockout,−0.0552
same,log2 TS,CERS5 knockout,−0.09954
same,log2 TS,CERS6 knockout,−0.2316
same,log2 TS,CES1 knockout,−0.1103
same,log2 TS,CES2 knockout,−0.115
same,log2 TS,CES3 knockout,−0.1816
same,log2 TS,CFTR knockout,−0.552
same,log2 TS,CHAT knockout,0.03889
same,log2 TS,CHI3L1 knockout,−0.08904
same,log2 TS,CHI3L2 knockout,−0.203
same,log2 TS,CHIA knockout,−0.1854
same,log2 TS,CHID1 knockout,−0.2305
same,log2 TS,CHIT1 knockout,−0.1013
same,log2 TS,CHKA knockout,0.1899
same,log2 TS,CHPF knockout,−0.1196
same,log2 TS,CHPT1 knockout,0.05664
same,log2 TS,CHRNA1 knockout,−0.2091
same,log2 TS,CHRNA2 knockout,−0.09543
same,log2 TS,CHRNA3 knockout,0.193
same,log2 TS,CHRNA4 knockout,−0.2119
same,log2 TS,CHRNA5 knockout,−0.1927
same,log2 TS,CHRNA6 knockout,−0.00193
same,log2 TS,CHRNA7 knockout,−0.4166
same,log2 TS,CHRNA9 knockout,−0.2542
same,log2 TS,CHRNA10 knockout,−0.09517
same,log2 TS,CHRNB1 knockout,−0.07599
same,log2 TS,CHRNB2 knockout,−0.2245
same,log2 TS,CHRNB3 knockout,−0.3189
same,log2 TS,CHRNB4 knockout,−0.4141
same,log2 TS,CHRND knockout,−0.5686
same,log2 TS,CHRNE knockout,−0.137
same,log2 TS,CHRNG knockout,0.05205
same,log2 TS,CHST1 knockout,−0.0245
same,log2 TS,CHST6 knockout,−0.3091
same,log2 TS,CKB knockout,−0.247
same,log2 TS,CKM knockout,−0.3126
same,log2 TS,CKMT2 knockout,−0.2525
same,log2 TS,CLC knockout,−0.314
same,log2 TS,CLCA1 knockout,−0.142
same,log2 TS,CLCA2 knockout,−0.4614
same,log2 TS,CLCA4 knockout,0.05396
same,log2 TS,CLCN1 knockout,−0.1326
same,log2 TS,CLCN2 knockout,−0.1747
same,log2 TS,CLCN3 knockout,−0.494
same,log2 TS,CLCN4 knockout,0.0428
same,log2 TS,CLCN5 knockout,−0.4161
same,log2 TS,CLCN6 knockout,−0.3635
same,log2 TS,CLCN7 knockout,−0.1319
same,log2 TS,CLCNKA knockout,−0.1822
same,log2 TS,CLCNKB knockout,−0.3352
same,log2 TS,CLIC1 knockout,−0.09123
same,log2 TS,CLIC2 knockout,−0.1159
same,log2 TS,CLIC3 knockout,0.07472
same,log2 TS,CLIC4 knockout,−0.06827
same,log2 TS,CLIC5 knockout,−0.3935
same,log2 TS,CLIC6 knockout,−0.02678
same,log2 TS,CLYBL knockout,0.05734
same,log2 TS,CMAS knockout,−0.3056
same,log2 TS,CMPK1 knockout,−0.1483
same,log2 TS,CNDP1 knockout,−0.1314
same,log2 TS,CNDP2 knockout,−0.1743
same,log2 TS,CNGA1 knockout,−0.1817
same,log2 TS,CNGA2 knockout,−0.3543
same,log2 TS,CNGA3 knockout,0.05484
same,log2 TS,CNGA4 knockout,−0.3821
same,log2 TS,CNGB1 knockout,−0.4165
same,log2 TS,CNGB3 knockout,−0.1968
same,log2 TS,COA5 knockout,−0.2719
same,log2 TS,COASY knockout,0.06804
same,log2 TS,COMT knockout,−0.2352
same,log2 TS,COMTD1 knockout,−0.123
same,log2 TS,COQ3 knockout,−0.1115
same,log2 TS,COQ5 knockout,−0.3619
same,log2 TS,COQ6 knockout,−0.1357
same,log2 TS,COQ9 knockout,0.009879
same,log2 TS,COX10 knockout,−0.3233
same,log2 TS,COX11 knockout,−0.3148
same,log2 TS,COX15 knockout,−0.6246
same,log2 TS,COX17 knockout,−0.66
same,log2 TS,COX20 knockout,−0.2164
